# Assay results from ChEMBL document CHEMBL1138027, “Dimethoxybenzo[i]phenanthridine-12-carboxylic acid derivatives and 6H-dibenzo[c,h][2,6]naphthyridin-5-ones with potent topoisomerase I-targeting activity and cytotoxicity” (Bioorg Med Chem Lett, 2004).
# Columns and labels:
# [1] = tested on: KB 3-1; test: Concentration required to inhibit cell proliferation by 50% in KB3-1 tumor cell line; type: functional, cell-based; settings: Homo sapiens
# [2] = Concentration required to inhibit cell proliferation by 50% in P388/CPT-45 tumor cell line; camptothecin resistant; type: functional; settings: Mus musculus, P388CPT45
# [3] = tested on: P388; test: Concentration required to inhibit cell proliferation in P388 tumor cell line; type: functional, cell-based; settings: Mus musculus
# [4] = tested on: RPMI 8402; test: Concentration required to inhibit cell proliferation in […] tumor cell line; type: functional, cell-based; settings: Homo sapiens
# [5] = tested on: KB; test: Concentration required to inhibit cell proliferation by 50% in KBV-1 tumor cell line; overexpress MDR1; type: functional, cell-based; settings: Homo sapiens
# [6] = tested on: RPMI 8402; test: Concentration required to inhibit cell proliferation in CPT-K5 tumor cell line; camptothecin resistant; type: functional, cell-based; settings: Homo sapiens
# [7] = tested on: KB 3-1; test: Concentration required to inhibit cell proliferation by 50% in KBH5.0 tumor cell line; overexpress BCRP; type: functional, cell-based; settings: Homo sapiens
# [8] = biological target: T1, DNA topoisomerase 1 (Homo sapiens) (UniProt P11387); test: Relative effective concentration to cleave plasmid DNA with human topoisomerase I; compared to camptothecin=1
# T1 sequence (whole entry): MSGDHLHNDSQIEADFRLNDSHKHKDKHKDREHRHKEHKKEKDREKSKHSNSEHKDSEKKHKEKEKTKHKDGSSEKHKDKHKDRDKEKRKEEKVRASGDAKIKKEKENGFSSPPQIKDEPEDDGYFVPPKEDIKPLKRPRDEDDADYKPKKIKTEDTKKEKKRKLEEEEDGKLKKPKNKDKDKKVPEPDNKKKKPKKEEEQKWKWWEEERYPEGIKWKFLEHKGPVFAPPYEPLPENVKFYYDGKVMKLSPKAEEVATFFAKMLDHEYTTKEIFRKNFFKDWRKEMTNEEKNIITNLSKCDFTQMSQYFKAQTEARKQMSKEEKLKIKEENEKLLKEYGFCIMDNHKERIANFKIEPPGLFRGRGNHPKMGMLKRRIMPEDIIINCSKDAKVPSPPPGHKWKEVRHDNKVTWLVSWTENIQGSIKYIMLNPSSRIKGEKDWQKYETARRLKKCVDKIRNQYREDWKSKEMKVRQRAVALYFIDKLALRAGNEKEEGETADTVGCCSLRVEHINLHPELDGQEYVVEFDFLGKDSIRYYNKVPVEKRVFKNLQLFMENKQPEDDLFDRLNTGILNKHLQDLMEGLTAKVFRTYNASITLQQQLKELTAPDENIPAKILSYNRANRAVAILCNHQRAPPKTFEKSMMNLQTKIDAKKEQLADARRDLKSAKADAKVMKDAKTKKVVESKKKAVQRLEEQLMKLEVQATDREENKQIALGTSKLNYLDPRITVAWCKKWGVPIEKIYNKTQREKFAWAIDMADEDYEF
# [9] = tested on: KB; test: Concentration required to inhibit cell proliferation in KBV-1 tumor cell line; overexpress MDR1; type: functional, cell-based; settings: Homo sapiens
# [10] = Concentration required to inhibit cell proliferation in P388/CPT-45 tumor cell line; camptothecin resistant; type: functional; settings: Mus musculus, P388CPT45
# [11] = tested on: KB 3-1; test: Concentration required to inhibit cell proliferation in KB3-1 tumor cell line; type: functional, cell-based; settings: Homo sapiens
# [12] = tested on: KB 3-1; test: Concentration required to inhibit cell proliferation in KBH5.0 tumor cell line; overexpress BCRP; type: functional, cell-based; settings: Homo sapiens
smiles,measurement,setting,value
COc1cc2c(C(=O)OCCN(C)C)cc3c4cc5c(cc4ncc3c2cc1OC)OCO5,IC50,[1],30 nM
same,IC50,[2],20 nM
same,IC50,[3],10 nM
same,IC50,[4],30 nM
same,IC50,[5],220 nM
same,IC50,[6],730 nM
same,IC50,[7],70 nM
same,REC,[8],5
CCN(CC)CCn1c(=O)c2c3cc4c(cc3ncc2c2cc(OC)c(OC)cc21)OCO4,IC50,[9],10 nM
same,IC50,[10],30 nM
same,IC50,[3],3 nM
same,IC50,[11],3 nM
same,IC50,[4],3 nM
same,IC50,[12],5 nM
same,IC50,[6],900 nM
same,REC,[8],0.7
COc1cc2c(C(=O)NCCN(C)C)cc3c4cc5c(cc4ncc3c2cc1OC)OCO5,IC50,[1],1 nM
same,IC50,[2],260 nM
same,IC50,[3],2 nM
same,IC50,[4],3 nM
same,IC50,[5],100 nM
same,IC50,[6],1000 nM
same,IC50,[7],30 nM
same,REC,[8],0.5
CC[C@@]1(O)C(=O)OCc2c1cc1n(c2=O)Cc2cc3ccccc3nc2-1 [CAMPTOTHECIN],IC50,[9],20 nM
same,IC50,[10],> 10000 nM
same,IC50,[3],10 nM
same,IC50,[11],10 nM
same,IC50,[4],6 nM
same,IC50,[12],20 nM
same,IC50,[6],> 10000 nM
same,REC,[8],1
CC[C@@]1(O)C(=O)OCc2c1cc1n(c2=O)Cc2cc3c(CN(C)C)c(O)ccc3nc2-1 [TOPOTECAN],IC50,[9],440 nM
same,IC50,[10],> 10000 nM
same,IC50,[3],40 nM
same,IC50,[11],40 nM
same,IC50,[4],20 nM
same,IC50,[12],440 nM
same,IC50,[6],> 10000 nM
same,REC,[8],5
CCOC(=O)c1cc2c3cc4c(cc3ncc2c2cc(OC)c(OC)cc12)OCO4,IC50,[1],40 nM
same,IC50,[2],3250 nM
same,IC50,[3],40 nM
same,IC50,[4],80 nM
same,IC50,[5],340 nM
same,IC50,[6],> 10000 nM
same,IC50,[7],110 nM
same,REC,[8],12
COc1cc2c(C(=O)NCCCN(C)C)cc3c4cc5c(cc4ncc3c2cc1OC)OCO5,IC50,[1],40 nM
same,IC50,[2],340 nM
same,IC50,[3],30 nM
same,IC50,[4],50 nM
same,IC50,[5],4500 nM
same,IC50,[6],2050 nM
same,IC50,[7],500 nM
same,REC,[8],30
COc1cc2c3cnc4cc5c(cc4c3c(=O)n(CCN(C)C)c2cc1OC)OCO5,IC50,[1],2 nM
same,IC50,[2],200 nM
same,IC50,[3],2 nM
same,IC50,[4],0.7 nM
same,IC50,[5],4 nM
same,IC50,[6],210 nM
same,IC50,[7],4 nM
same,REC,[8],3
COc1cc2c(=O)n(CCN(C)C)c3c4cc5c(cc4ncc3c2cc1OC)OCO5,IC50,[9],5 nM
same,IC50,[10],230 nM
same,IC50,[3],1 nM
same,IC50,[11],5 nM
same,IC50,[12],6 nM
same,IC50,[6],900 nM
COc1cc2c3cnc4cc5c(cc4c3c(=O)n(CCCN(C)C)c2cc1OC)OCO5,IC50,[9],7 nM
same,IC50,[10],20 nM
same,IC50,[3],3 nM
same,IC50,[11],3 nM
same,IC50,[4],0.5 nM
same,IC50,[12],4 nM
same,IC50,[6],200 nM
same,REC,[8],3
COc1cc2c(C(=O)OCCCN(C)C)cc3c4cc5c(cc4ncc3c2cc1OC)OCO5,IC50,[1],500 nM
same,IC50,[2],140 nM
same,IC50,[3],110 nM
same,IC50,[4],220 nM
same,IC50,[5],2000 nM
same,IC50,[6],1500 nM
same,IC50,[7],600 nM
same,REC,[8],7
COc1cc2c3cnc4cc5c(cc4c3c(=O)n(CCN3CCCCC3)c2cc1OC)OCO5,IC50,[9],6 nM
same,IC50,[10],230 nM
same,IC50,[3],3 nM
same,IC50,[11],6 nM
same,IC50,[4],1 nM
same,IC50,[12],7 nM
same,IC50,[6],1500 nM
same,REC,[8],0.1
